Test results from patent publication US8778919B2, “Cyclic anilino—pyridinotriazines” (Janssen Pharmaceutica NV, priority 2005, dated 2014).

Assays:
Assay type in all cases: biochemical
[1] = target: GSK-3α (Homo sapiens, UniProt P49840); assay: GSK-3 kinase assay (C1), GSK-3α; settings: 1 μM ATP, read-out: C1 Score α
Summary of the method: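 Radiometric SPA at room temperature in 25 mM Tris pH 7.4 with 10 mM MgCl2, 1 mM DTT, 5.7 ng/μl GSK-3β or 0.25 ng/μl GSK-3α, 5 μM biotinylated CREB peptide and 1 μM ATP plus ^33P-ATP. Stopped after 1 h; IC50 from dose-response versus no-compound control, reported as pIC50 score bands.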

[2] = target: CDK1/cyclinB (h) (Homo sapiens, UniProt P06493); assay: Kinase profiling C3.2 CDK1/cyclinB human; settings: test concentration of 10^−6 M
Summary of the method: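 Radiometric filter-binding assay: human CDK1/cyclinB (5-10 mU) with 0.1 mg/ml histone H1 substrate and [γ-33P]ATP in 8 mM MOPS pH 7.0, 10 mM Mg acetate, 40 min at room temperature. Stopped with phosphoric acid; substrate-bound 33P counted on P30 filtermat by scintillation.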

[3] = target: CDK2/cyclinA (h) (Homo sapiens, UniProt P24941); assay: Kinase profiling C3.3 CDK2/cyclinA human; settings: test concentration of 10^−6 M
Summary of the method: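 Human CDK2/cyclinA (5-10 mU) phosphorylates 0.1 mg/ml histone H1 in 8 mM MOPS pH 7.0, EDTA, 10 mM Mg acetate with [γ-33P]ATP, 40 min at room temperature. After phosphoric acid stop, filter-bound 33P counted by scintillation.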

[4] = target: CDK3/cyclinE (h) (Homo sapiens, UniProt Q00526); assay: Kinase profiling C3.5 CDK3/cyclinE human; settings: test concentration of 10^−6 M
Summary of the method: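 Human CDK3/cyclinE (5-10 mU) phosphorylated 0.1 mg/ml histone H1 in 8 mM MOPS pH 7.0, 0.2 mM EDTA and 10 mM MgAcetate with [γ-33P]ATP. Reaction ran 40 min at room temperature and was stopped with phosphoric acid. Substrate-bound radioactivity was captured on P30 filtermat and measured by scintillation counting.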

[5] = target: CDK5/p35 human (Homo sapiens, UniProt Q00535); assay: Kinase profiling C3.6 CDK5/p35 human; settings: CDK5/p35, test concentration of 10^−6 M
Summary of the method: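 Radiometric filter-binding assay: human CDK5/p35 (5-10 mU) with 0.1 mg/ml histone H1 substrate in 8 mM MOPS pH 7.0, 0.2 mM EDTA, 10 mM Mg acetate and [γ-33P]ATP. Incubated 40 min at room temperature, stopped with phosphoric acid. Substrate 33P incorporation counted on P30 filtermat by scintillation.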

[6] = target: CDK7/cyclinH/MAT1 (h) (Homo sapiens, UniProt P50613); assay: Kinase profiling C3.8 CDK7/cyclinH/MAT1 human; settings: CDK7/cyclinH/MAT1, test concentration of 10^−6 M
Summary of the method: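 Human CDK7/cyclinH/MAT1 (5-10 mU) incubated 40 min at room temperature in 8 mM MOPS pH 7.0, 0.2 mM EDTA, 10 mM Mg acetate, 500 μM peptide substrate and [γ-^33P]ATP. Stopped with phosphoric acid; substrate phosphorylation measured by filter binding and scintillation counting.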

CDK5/p35 human, sequence (Q00535 whole entry): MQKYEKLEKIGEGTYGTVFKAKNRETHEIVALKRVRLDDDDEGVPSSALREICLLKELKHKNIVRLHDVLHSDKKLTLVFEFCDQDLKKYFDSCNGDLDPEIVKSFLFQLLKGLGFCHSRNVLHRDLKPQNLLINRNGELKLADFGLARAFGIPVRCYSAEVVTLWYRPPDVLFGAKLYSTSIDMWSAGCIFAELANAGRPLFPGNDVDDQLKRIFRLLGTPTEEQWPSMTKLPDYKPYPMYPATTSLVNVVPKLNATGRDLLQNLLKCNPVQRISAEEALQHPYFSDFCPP
CDK5/p35 human, sequence (Q15078 whole entry partner): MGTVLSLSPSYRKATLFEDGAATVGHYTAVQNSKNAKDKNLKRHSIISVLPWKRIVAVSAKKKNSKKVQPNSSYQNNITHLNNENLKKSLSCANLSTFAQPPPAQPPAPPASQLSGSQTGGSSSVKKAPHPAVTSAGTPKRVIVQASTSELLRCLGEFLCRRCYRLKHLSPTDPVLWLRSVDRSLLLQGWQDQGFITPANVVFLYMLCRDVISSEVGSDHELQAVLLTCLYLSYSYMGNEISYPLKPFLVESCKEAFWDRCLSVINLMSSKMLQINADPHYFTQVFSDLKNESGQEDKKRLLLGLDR
CDK7/cyclinH/MAT1 (h), sequence (P50613 whole entry): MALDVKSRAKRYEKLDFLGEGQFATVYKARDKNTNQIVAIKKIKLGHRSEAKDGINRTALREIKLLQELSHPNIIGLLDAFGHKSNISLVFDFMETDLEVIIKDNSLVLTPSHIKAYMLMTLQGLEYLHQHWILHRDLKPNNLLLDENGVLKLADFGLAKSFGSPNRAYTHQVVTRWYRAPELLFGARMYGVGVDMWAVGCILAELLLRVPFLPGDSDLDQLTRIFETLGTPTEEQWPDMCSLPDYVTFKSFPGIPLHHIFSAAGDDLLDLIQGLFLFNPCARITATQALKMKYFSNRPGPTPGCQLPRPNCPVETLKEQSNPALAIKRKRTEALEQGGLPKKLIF
CDK7/cyclinH/MAT1 (h), sequence (P51946 whole entry partner): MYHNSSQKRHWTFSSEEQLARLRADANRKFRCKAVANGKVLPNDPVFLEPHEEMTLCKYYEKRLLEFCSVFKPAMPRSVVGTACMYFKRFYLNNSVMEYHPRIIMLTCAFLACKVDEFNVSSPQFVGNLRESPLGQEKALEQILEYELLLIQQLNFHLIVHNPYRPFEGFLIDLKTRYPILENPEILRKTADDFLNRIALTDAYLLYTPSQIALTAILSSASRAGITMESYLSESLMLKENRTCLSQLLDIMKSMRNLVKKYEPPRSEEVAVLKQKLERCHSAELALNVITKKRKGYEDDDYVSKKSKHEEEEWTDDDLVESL
CDK7/cyclinH/MAT1 (h), sequence (P51948 whole entry partner): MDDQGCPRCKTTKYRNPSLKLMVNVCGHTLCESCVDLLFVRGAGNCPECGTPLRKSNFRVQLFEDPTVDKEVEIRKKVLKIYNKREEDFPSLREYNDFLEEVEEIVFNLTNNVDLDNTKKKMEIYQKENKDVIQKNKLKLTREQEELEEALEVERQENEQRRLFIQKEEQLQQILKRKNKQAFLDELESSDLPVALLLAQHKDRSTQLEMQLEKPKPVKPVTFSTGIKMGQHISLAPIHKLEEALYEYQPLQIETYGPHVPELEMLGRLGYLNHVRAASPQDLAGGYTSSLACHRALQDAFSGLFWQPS
CDK3/cyclinE (h), sequence (Q00526 whole entry): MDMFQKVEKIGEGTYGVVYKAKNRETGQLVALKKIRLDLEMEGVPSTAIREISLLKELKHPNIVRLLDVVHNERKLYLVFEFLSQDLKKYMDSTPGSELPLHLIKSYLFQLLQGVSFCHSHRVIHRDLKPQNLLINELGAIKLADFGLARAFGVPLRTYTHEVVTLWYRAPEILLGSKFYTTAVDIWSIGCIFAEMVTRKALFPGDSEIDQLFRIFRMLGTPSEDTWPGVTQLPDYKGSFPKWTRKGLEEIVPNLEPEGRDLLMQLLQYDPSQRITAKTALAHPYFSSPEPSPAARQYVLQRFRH
CDK3/cyclinE (h), sequence (P24864 whole entry partner): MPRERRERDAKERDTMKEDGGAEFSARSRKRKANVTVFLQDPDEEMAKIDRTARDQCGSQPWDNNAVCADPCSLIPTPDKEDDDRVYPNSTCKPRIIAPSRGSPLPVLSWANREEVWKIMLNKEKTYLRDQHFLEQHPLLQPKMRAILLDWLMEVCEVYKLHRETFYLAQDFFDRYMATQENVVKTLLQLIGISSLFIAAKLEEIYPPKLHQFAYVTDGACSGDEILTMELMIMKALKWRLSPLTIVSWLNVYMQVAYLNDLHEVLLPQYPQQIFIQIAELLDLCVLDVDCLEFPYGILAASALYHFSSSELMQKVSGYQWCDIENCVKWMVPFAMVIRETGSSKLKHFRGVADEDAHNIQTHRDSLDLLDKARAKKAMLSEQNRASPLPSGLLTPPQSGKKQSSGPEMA
CDK1/cyclinB (h), sequence (P06493 whole entry): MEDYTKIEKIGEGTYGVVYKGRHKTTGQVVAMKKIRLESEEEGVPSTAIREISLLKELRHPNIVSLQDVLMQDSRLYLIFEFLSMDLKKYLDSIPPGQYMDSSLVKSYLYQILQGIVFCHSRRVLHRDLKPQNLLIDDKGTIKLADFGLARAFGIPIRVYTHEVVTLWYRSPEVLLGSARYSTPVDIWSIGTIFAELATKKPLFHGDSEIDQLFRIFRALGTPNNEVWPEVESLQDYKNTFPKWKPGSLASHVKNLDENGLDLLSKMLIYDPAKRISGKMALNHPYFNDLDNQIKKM
CDK1/cyclinB (h), sequence (P14635 whole entry partner): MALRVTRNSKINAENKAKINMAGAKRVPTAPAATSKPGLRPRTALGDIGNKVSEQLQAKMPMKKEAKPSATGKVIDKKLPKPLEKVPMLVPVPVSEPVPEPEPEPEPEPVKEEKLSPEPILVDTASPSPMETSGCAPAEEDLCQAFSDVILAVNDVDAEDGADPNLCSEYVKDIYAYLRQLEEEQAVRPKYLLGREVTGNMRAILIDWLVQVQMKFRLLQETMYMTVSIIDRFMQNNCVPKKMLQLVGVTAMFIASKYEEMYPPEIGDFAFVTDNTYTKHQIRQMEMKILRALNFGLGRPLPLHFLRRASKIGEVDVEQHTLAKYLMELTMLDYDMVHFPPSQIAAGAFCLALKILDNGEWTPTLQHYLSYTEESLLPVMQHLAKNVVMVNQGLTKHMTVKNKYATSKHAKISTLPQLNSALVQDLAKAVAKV
GSK-3α, sequence (P49840 whole entry, species assumed): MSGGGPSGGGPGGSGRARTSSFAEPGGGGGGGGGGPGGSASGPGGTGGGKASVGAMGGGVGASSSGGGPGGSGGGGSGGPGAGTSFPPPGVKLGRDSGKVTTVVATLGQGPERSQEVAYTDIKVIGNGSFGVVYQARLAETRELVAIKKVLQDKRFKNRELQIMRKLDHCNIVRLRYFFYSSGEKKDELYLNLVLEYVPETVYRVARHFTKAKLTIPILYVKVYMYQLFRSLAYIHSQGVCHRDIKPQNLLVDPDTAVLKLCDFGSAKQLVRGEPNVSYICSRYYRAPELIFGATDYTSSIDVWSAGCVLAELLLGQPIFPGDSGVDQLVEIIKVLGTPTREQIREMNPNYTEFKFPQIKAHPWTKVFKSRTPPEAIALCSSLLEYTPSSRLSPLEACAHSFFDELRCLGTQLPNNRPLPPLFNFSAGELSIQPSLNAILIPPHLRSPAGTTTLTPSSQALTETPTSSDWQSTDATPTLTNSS

| Compound | IC50 [1] [nM] | C3.2 score [2] | C3.3 score [3] | C3.5 score [4] | C3.6 score [5] | C3.8 score [6] |
| --- | --- | --- | --- | --- | --- | --- |
| CN1CC(=O)NCCCc2cc(ccn2)-c2ncnc(n2)Nc2cc(Cl)cc(c2)C1 [Compound 33] | < 10 | 4 (Score 4 = >80% inhibition) | 4 (Score 4 = >80% inhibition) | 4 (Score 4 = >80% inhibition) | 4 (Score 4 = >80% inhibition) | 3 (Score 3 = 60-80% inhibition) |
| CCN1CC(=O)NCCCc2cc(ccn2)-c2ncnc(n2)Nc2cc(Cl)cc(c2)C1 [Compound 34] | < 10 | 4 (Score 4 = >80% inhibition) | 4 (Score 4 = >80% inhibition) | 4 (Score 4 = >80% inhibition) | 4 (Score 4 = >80% inhibition) | 2 (Score 2 = 30-60% inhibition) |
| O=C1NCCCc2cccc(c2)-c2ncnc(n2)Nc2cccc(c2)CN[C@H]1CO [Compound 46] | < 10 | 4 (Score 4 = >80% inhibition) | 4 (Score 4 = >80% inhibition) | 4 (Score 4 = >80% inhibition) | 4 (Score 4 = >80% inhibition) | 1 (Score 1 = 10-30% inhibition) |
| CCN1CC(=O)NCCCc2cccc(c2)-c2ncnc(n2)Nc2cccc(c2)C1 [Compound 54] | < 10 | 3 (Score 3 = 60-80% inhibition) | 4 (Score 4 = >80% inhibition) | 2 (Score 2 = 30-60% inhibition) | 3 (Score 3 = 60-80% inhibition) | 1 (Score 1 = 10-30% inhibition) |
| O=C1CN2CCN(CC2)Cc2cccc(c2)Nc2ncnc(n2)-c2ccc(F)c(c2)CCCN1 [Compound 66] | < 10 | 4 (Score 4 = >80% inhibition) | 3 (Score 3 = 60-80% inhibition) | 3 (Score 3 = 60-80% inhibition) | 3 (Score 3 = 60-80% inhibition) | 1 (Score 1 = 10-30% inhibition) |

The next lines start with the values.

| IC50 [1] [nM] | C3.2 score [2] | C3.3 score [3] | C3.5 score [4] | C3.6 score [5] | C3.8 score [6] | Compound |
| --- | --- | --- | --- | --- | --- | --- |
| 10 to 100 | 2 (Score 2 = 30-60% inhibition) | 4 (Score 4 = >80% inhibition) | 2 (Score 2 = 30-60% inhibition) | 1 (Score 1 = 10-30% inhibition) | 2 (Score 2 = 30-60% inhibition) | O=C1NCCCc2cc(ccn2)-c2ncnc(n2)Nc2cccc(c2)CN2C[C@H](O)C[C@@H]12 [Compound 14] |
| 10 to 100 | 1 (Score 1 = 10-30% inhibition) | 2 (Score 2 = 30-60% inhibition) | 1 (Score 1 = 10-30% inhibition) | 1 (Score 1 = 10-30% inhibition) | 2 (Score 2 = 30-60% inhibition) | O=C1NCCCc2cc(ccn2)-c2ncnc(n2)Nc2cccc(c2)CN2CCCC1C2 (stereo not drawn) [Compound 15] |
| < 10 | 4 (Score 4 = >80% inhibition) | 4 (Score 4 = >80% inhibition) | 4 (Score 4 = >80% inhibition) | 4 (Score 4 = >80% inhibition) | 3 (Score 3 = 60-80% inhibition) | CCN1CCCc2cc(ccn2)-c2ncnc(n2)Nc2cccc(c2)CCNC(=O)C1 [Compound 30] |
| 10 to 100 | 4 (Score 4 = >80% inhibition) | 4 (Score 4 = >80% inhibition) | 4 (Score 4 = >80% inhibition) | 4 (Score 4 = >80% inhibition) | 4 (Score 4 = >80% inhibition) | O=C1CCN2CCN(CC2)Cc2cccc(c2)Nc2ncnc(n2)-c2ccnc(c2)CCCN1 [Compound 35] |
| < 10 | 4 (Score 4 = >80% inhibition) | 4 (Score 4 = >80% inhibition) | 3 (Score 3 = 60-80% inhibition) | 3 (Score 3 = 60-80% inhibition) | 2 (Score 2 = 30-60% inhibition) | O=C1CN2CCN(CC2)Cc2cccc(c2)Nc2ncnc(n2)-c2ccnc(c2)CCCN1 [Compound 36] |
| < 10 | 4 (Score 4 = >80% inhibition) | 4 (Score 4 = >80% inhibition) | 3 (Score 3 = 60-80% inhibition) | 3 (Score 3 = 60-80% inhibition) | 2 (Score 2 = 30-60% inhibition) | O=C1CN2CCN(CC2)Cc2cc(Cl)cc(c2)Nc2ncnc(n2)-c2ccnc(c2)CCCN1 [Compound 41] |
